Assay results taken from ChEMBL document CHEMBL3431459, “Roche carnitine palmitoyltransferase modulator screening data (supplementary data associated with the publication CHEMBL2216752)”.
≈ marks a conversion by molar mass, not a printed value.

Columns and labels:
[1] = molecular target: T1, Carnitine O-palmitoyltransferase 1, muscle isoform (Homo sapiens, UniProt Q92523); test: SUPPLEMENTARY: Inhibition of Carnitine palmitoyltransferase 1, muscle isoform; set-up: species or system Muscle tissue
T1 sequence (Q92523 whole entry): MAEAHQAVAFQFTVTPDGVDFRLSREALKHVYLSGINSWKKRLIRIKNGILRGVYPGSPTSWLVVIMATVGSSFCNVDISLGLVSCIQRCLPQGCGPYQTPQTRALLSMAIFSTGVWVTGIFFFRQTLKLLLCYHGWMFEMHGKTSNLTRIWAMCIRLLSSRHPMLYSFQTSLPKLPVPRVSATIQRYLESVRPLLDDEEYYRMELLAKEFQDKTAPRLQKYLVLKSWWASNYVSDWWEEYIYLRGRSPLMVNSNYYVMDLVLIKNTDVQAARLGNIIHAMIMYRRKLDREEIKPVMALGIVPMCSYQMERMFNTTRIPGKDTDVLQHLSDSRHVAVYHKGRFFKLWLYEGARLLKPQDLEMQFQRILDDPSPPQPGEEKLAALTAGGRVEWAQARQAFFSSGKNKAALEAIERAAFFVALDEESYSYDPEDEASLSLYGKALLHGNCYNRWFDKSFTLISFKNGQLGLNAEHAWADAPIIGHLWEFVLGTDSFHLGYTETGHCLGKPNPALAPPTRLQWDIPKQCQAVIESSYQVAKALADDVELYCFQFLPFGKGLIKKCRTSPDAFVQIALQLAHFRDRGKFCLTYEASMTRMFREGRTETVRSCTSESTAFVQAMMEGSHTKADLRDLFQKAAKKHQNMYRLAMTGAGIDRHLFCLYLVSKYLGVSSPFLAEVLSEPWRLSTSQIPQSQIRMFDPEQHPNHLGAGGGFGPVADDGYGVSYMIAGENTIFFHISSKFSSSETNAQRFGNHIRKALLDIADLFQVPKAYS

[2] = molecular target: T2, Carnitine O-palmitoyltransferase 2, mitochondrial (Homo sapiens, UniProt P23786); test: (§1) SUPPLEMENTARY: Inhibition of Carnitine palmitoyltransferase 2
T2 sequence (P23786 whole entry): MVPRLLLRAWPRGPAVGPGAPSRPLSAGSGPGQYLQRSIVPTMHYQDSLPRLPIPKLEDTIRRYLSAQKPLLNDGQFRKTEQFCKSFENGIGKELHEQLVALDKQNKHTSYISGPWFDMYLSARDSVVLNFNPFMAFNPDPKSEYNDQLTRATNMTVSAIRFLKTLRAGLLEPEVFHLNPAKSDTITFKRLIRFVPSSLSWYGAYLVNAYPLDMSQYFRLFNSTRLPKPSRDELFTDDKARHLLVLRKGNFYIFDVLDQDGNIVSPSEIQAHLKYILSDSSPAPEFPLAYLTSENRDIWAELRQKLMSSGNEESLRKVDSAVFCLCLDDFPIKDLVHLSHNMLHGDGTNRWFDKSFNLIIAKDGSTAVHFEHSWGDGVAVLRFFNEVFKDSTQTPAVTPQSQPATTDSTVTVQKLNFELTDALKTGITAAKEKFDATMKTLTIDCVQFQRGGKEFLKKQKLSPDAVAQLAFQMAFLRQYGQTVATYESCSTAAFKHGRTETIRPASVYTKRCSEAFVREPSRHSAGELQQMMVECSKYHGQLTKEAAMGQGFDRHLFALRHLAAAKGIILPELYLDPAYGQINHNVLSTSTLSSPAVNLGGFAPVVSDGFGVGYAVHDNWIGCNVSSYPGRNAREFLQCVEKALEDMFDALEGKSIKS

[3] = molecular target: T3, Carnitine O-palmitoyltransferase 2, mitochondrial (Rattus norvegicus, UniProt P18886); test: as §1
T3 sequence (P18886 whole entry): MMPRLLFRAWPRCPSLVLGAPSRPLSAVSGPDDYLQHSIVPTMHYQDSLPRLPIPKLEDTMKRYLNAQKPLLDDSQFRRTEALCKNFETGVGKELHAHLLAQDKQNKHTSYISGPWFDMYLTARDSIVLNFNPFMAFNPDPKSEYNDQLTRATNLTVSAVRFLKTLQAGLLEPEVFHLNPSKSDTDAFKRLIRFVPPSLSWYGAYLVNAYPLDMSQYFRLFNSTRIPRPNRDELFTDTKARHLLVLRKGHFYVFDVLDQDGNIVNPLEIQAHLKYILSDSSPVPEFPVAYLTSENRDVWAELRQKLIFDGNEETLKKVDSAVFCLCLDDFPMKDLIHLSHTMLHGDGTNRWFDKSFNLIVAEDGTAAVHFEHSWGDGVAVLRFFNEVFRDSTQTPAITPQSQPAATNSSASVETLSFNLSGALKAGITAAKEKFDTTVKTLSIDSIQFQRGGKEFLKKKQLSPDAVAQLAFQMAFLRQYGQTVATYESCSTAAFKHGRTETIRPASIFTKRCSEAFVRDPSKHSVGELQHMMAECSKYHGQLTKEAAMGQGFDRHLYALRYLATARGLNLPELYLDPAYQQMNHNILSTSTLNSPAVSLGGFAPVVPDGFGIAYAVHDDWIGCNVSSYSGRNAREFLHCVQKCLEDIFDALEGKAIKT

[4] = molecular target: T4, Carnitine O-palmitoyltransferase 1, liver isoform (Homo sapiens, UniProt P50416); test: (§2) SUPPLEMENTARY: Inhibition of Carnitine palmitoyltransferase 1, liver isoform
T4 sequence (P50416 whole entry): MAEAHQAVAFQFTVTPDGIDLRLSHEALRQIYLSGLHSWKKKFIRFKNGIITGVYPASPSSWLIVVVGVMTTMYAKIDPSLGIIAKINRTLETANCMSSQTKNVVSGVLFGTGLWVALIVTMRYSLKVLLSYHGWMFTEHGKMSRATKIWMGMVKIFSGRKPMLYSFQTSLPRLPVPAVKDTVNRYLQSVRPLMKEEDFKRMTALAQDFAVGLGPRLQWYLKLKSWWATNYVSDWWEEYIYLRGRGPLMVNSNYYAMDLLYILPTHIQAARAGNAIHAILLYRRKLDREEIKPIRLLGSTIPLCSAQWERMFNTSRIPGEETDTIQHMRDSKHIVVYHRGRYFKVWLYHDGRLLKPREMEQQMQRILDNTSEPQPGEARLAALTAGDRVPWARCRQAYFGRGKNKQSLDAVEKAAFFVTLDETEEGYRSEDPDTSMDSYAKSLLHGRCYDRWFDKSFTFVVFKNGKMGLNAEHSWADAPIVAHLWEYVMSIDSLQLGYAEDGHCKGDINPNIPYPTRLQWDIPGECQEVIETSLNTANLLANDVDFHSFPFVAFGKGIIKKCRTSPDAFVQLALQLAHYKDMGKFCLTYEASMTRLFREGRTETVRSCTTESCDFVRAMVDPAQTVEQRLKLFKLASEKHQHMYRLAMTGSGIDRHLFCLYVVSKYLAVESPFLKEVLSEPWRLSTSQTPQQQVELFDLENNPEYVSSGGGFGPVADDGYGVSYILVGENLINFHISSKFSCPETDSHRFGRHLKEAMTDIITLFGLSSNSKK

[5] = molecular target: T5, Carnitine O-palmitoyltransferase 1, liver isoform (Rattus norvegicus, UniProt P32198); test: as §2
T5 sequence (P32198 whole entry): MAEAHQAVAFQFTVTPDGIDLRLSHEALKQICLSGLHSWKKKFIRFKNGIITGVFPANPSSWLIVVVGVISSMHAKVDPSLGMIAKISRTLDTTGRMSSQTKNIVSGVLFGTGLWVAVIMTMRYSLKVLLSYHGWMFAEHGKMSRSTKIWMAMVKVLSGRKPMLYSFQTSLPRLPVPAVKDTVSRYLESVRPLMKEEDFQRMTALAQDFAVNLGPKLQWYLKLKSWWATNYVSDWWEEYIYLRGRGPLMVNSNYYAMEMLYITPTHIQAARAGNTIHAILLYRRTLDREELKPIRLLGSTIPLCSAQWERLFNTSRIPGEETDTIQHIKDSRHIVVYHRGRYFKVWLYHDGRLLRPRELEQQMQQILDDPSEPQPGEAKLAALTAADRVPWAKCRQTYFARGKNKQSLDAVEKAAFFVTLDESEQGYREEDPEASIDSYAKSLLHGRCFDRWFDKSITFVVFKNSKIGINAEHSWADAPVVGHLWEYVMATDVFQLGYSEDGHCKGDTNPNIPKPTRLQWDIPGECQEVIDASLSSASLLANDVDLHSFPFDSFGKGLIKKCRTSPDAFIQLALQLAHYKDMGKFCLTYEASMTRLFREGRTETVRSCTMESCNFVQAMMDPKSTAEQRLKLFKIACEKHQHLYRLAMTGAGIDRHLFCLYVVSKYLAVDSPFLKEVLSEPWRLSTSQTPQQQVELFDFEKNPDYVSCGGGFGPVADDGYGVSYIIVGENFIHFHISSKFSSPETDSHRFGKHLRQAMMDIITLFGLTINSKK

[6] = SUPPLEMENTARY: Lyophilisation Solubility Assay (LYSA); type: physicochemical; conditions: read-out: Kinetic_solubility
[7] = SUPPLEMENTARY: Lipophilicity (log D) Determination by high-throughput shake-flask; type: physicochemical; conditions: octanol/water
[8] = SUPPLEMENTARY: PAMPA permeability assay; type: physicochemical; conditions: read-out: Permeability

Compound | IC50 [1] | IC50 [2] | IC50 [3] | IC50 [4] | IC50 [5] | solubility kinetic [6] | logD [7] | Papp [8]
O=C(COc1ccccc1)N1CCCC[C@@H]1c1nc(-c2ccc([N+](=O)[O-])o2)no1 | > 100000 nM | 9990 nM | 35700 nM | 68.2 nM | 297 nM | 6 µg/mL (≈ 15.1 µM) | 2.53 | 5.09 ×10⁻⁶ cm/s
O=C(COc1ccccc1)N1CCCC[C@@H]1c1nc(-c2cccs2)n[nH]1 | > 100000 nM | 29300 nM | > 100000 nM | 108 nM | 565 nM | 101 µg/mL (≈ 274 µM) | 2.96 | 2.69 ×10⁻⁶ cm/s
O=C(COc1ccccc1)N1CCCC[C@@H]1c1nc(-c2ccccc2F)n[nH]1 | > 100000 nM | 81400 nM | > 100000 nM | 106 nM | 187 nM | 61.5 µg/mL (≈ 162 µM) | 3.06 | 4.79 ×10⁻⁶ cm/s
O=C(COc1ccccc1)N1CCCC[C@@H]1c1nc(-c2cccc(F)c2)n[nH]1 | > 100000 nM | > 100000 nM | > 100000 nM | 82.7 nM | 250 nM | 23 µg/mL (≈ 60.5 µM) | 3.5 | 1.45 ×10⁻⁶ cm/s
O=C(COc1ccccc1)N1CCCC[C@@H]1c1nc(-c2ccc(F)c(F)c2)n[nH]1 | > 100000 nM | > 100000 nM | > 100000 nM | 239 nM | 598 nM | 77 µg/mL (≈ 193 µM) | 2.77 | 1.72 ×10⁻⁶ cm/s
N#Cc1ccc(C#C[C@H]2CCCCN2C(=O)COc2ccccc2)cc1 | > 100000 nM | > 100000 nM | > 100000 nM | 164 nM | 190 nM | 1 µg/mL (≈ 2.9 µM) | 3.56 | 0.61 ×10⁻⁶ cm/s
NS(=O)(=O)c1ccc(C#C[C@H]2CCCCN2C(=O)COc2ccccc2)cc1 | > 100000 nM | > 100000 nM | > 100000 nM | 86.6 nM | 83.8 nM | 8 µg/mL (≈ 20.1 µM) | 3.01 | 4.11 ×10⁻⁶ cm/s
O=C1COc2cc(C#C[C@H]3CCCCN3C(=O)COc3ccccc3)ccc2N1 | > 100000 nM | > 100000 nM | > 100000 nM | 154 nM | 205 nM | 2 µg/mL (≈ 5.12 µM) | 3.51 | 1.09 ×10⁻⁶ cm/s
O=C(COc1ccccc1)N1CCCC[C@@H]1c1nnn(-c2ccc3[nH]ccc3c2)n1 | > 100000 nM | 47300 nM | > 100000 nM | 130 nM | 162 nM | < 1 µg/mL | 3.88 | 2.27 ×10⁻⁶ cm/s

Further lines, results first:

IC50 [1] | IC50 [2] | IC50 [3] | IC50 [4] | IC50 [5] | solubility kinetic [6] | logD [7] | Papp [8] | Compound
> 100000 nM | > 100000 nM | > 100000 nM | 288 nM | 500 nM | < 1 µg/mL | > 3 | 2.48 ×10⁻⁶ cm/s | COc1ccc(-c2noc([C@H]3CCCCN3C(=O)C#Cc3ccccc3)n2)cc1
27300 nM | > 100000 nM | > 100000 nM | 34.5 nM | 25.9 nM | 446 µg/mL (≈ 887 µM) | -0.45 | 0.03 ×10⁻⁶ cm/s | COc1ccc(Cl)cc1S(=O)(=O)N1CC(C(=O)O)Oc2ccc(C(=O)Nc3ccccc3)cc21 (stereo not given)
> 100000 nM | 49700 nM | 78300 nM | 108 nM | 475 nM | 50 µg/mL (≈ 119 µM) | 3.14 | 2.71 ×10⁻⁶ cm/s | CC(=O)Nc1ccc(-n2nnc([C@H]3CCCCN3C(=O)COc3ccccc3)n2)cc1
9880 nM | 42100 nM | > 100000 nM | 75.8 nM | 169 nM | 18 µg/mL (≈ 49.7 µM) | 2.85 | 2.96 ×10⁻⁶ cm/s | NC(=O)c1ccc(C#C[C@H]2CCCCN2C(=O)COc2ccccc2)cc1
2410 nM | > 100000 nM | > 100000 nM | 40.6 nM | 54.8 nM | 19 µg/mL (≈ 40.4 µM) | 2.39 | 0.51 ×10⁻⁶ cm/s | COc1ccc(Cl)cc1Cc1cn(C)c2ccc(C(=O)Nc3nc(CC(=O)O)cs3)cc12
2470 nM | > 100000 nM | > 100000 nM | 130 nM | 119 nM | 44 µg/mL (≈ 95 µM) | 2.7 | 0.86 ×10⁻⁶ cm/s | COc1ccc(Cl)cc1Cc1cn(C)c2ccc(C(=O)Nc3ccc(CC(=O)O)cc3)cc12
